Experimental data: US20130001162A1, “Apparatus, System, and Method for Forward Osmosis in Water Reuse” (priority 2011, published 2013)

Experiments:
[1] = stated with the literature report; cited from earlier work
[2] = Rejection of micropollutants by low pressure reverse osmosis (LPRO), diluted DS as feed; conditions: permeate of LPRO at 15 bar

| SMILES | log D [1] | concentration, Permeate LPRO [2] |
| --- | --- | --- |
| C[C@]12CC[C@@H]3c4ccc(O)cc4CC[C@H]3[C@@H]1CCC2=O [estrone] | 3.46 | – |
| CC(C(=O)O)c1cccc(C(=O)c2ccccc2)c1 (stereo not drawn) [Ketoprofen] | – | <0.01 ng/mL |
| C#C[C@]1(O)CC[C@H]2[C@@H]3CCc4cc(O)ccc4[C@H]3CC[C@@]21C [17α-ethynilestradiol] | – | <0.001 ng/mL |
| Cc1ncc([N+](=O)[O-])n1CCO [Metronidazole] | – | 0.08 ng/mL |
| C1COCCO1 [1,4-dioxane] | – | <0.5 ng/mL |
| NC(=O)N1c2ccccc2C=Cc2ccccc21 [Carbamazepine] | – | 0.02 ng/mL |
| CC(C)(c1ccc(O)cc1)c1ccc(O)cc1 [Bisphenol A] | – | 0.058 ng/mL |
| C[C@]12CC[C@@H]3c4ccc(O)cc4CC[C@H]3[C@@H]1CC[C@@H]2O [estradiol] | 3.94 | – |
| CC(C(=O)O)c1cccc(Oc2ccccc2)c1 (stereo not drawn) [Fenoprofen] | – | <0.01 ng/mL |
| Cc1ccc(C)c(OCCCC(C)(C)C(=O)O)c1 [Gemfibrozil] | – | <0.01 ng/mL |
| Cn1c(=O)c2c(ncn2C)n(C)c1=O [Caffeine] | – | 0.03 ng/mL |
| CC(=O)Nc1ccc(O)cc1 [Acetaminophen] | – | 0.31 ng/mL |
